# Test results taken from patent US9150566B2, “2-(1,2,3-triazol-2-yl)benzamide and 3-(1,2,3-triazol-2-YL)picolinamide derivatives as orexin receptor antagonists” (ACTELION PHARMACEUTICALS LTD., priority 2011, dated 2015).
# Where two headings read alike, the source gives them in different places.
# Legend:
# human orexin-1 receptor = human orexin-1 receptor (Homo sapiens (Human), UniProt O43613); assay: In vitro intracellular calcium measurements (FLIPR), antagonistic activity on orexin-1 receptor; format: cell-based
# Chain of human orexin-1 receptor (O43613 whole entry): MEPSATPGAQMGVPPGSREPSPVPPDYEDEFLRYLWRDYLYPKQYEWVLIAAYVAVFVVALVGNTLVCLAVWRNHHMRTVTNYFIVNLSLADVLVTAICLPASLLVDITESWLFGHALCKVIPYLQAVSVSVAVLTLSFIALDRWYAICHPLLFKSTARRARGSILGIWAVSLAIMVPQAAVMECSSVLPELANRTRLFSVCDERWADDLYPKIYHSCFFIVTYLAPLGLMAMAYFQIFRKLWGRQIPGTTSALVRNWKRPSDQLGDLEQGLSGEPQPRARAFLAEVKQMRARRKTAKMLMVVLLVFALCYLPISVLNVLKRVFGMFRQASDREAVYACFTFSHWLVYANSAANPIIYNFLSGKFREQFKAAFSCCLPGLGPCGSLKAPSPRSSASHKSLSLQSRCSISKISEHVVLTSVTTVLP
# Outline: (§1)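 Recombinant CHO lines bearing human OX1 or OX2 receptors received test antagonist 120 min before agonist addition.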
# [1] = Measurement of brain and systemic concentration after oral administration; format: in vivo; conditions: rat, brain, male wistar rats, oral 100 mg/kg, read-out: brain concentration [B]; for concentration at 3 h: formulated in 100% PEG400, sampled at 3 h; for concentration at 1 h: formulated in 10% PEG400/90% MC0.5%, sampled at 1 h
# Description: Measurement of Brain and Systemic Concentration after Oral Administration:
# In order to assess brain penetration, the concentration of the compound is measured in plasma ([P]), and brain ([B]), sampled 1 h or 3 h (or at different time points) following oral administration (100 mg/kg) to male wistar rats (n=3). The compounds are formulated either in 100% PEG 400 or 10% PEG400/90% MC0.5%. Samples are collected in the same animal at the same time point (+/−5 min). Blood is sampled from the vena cava caudalis into containers with EDTA as anticoagulant and centrifuged to yield plasma. Brain is sampled after cardiac perfusion of 10 mL NaCl 0.9% and homogenized into one volume of cold phosphate buffer (pH 7.4). All samples are extracted with MeOH and analyzed by LC-MS/MS. Concentrations are determined with the help of calibration curves. Inter-individual variations between the three rats were limited. Particular compounds of the present invention tested as described above gave brain concentrations ([B]) as shown in Table 16 below; wherein the compounds of Examples 11-37 and 94 were formulated in 100% PEG400 and sampled at 3 h. All other examples below were formulated in 10% PEG400/90% MC0.5% and sampled at 1 h.
# human orexin-2 receptor = human orexin-2 receptor (Homo sapiens (Human), UniProt O43614); assay: In vitro intracellular calcium measurements (FLIPR), antagonistic activity on orexin-2 receptor; format: cell-based; conditions: read-out: IC50 OX2
# Chain of human orexin-2 receptor (O43614 whole entry): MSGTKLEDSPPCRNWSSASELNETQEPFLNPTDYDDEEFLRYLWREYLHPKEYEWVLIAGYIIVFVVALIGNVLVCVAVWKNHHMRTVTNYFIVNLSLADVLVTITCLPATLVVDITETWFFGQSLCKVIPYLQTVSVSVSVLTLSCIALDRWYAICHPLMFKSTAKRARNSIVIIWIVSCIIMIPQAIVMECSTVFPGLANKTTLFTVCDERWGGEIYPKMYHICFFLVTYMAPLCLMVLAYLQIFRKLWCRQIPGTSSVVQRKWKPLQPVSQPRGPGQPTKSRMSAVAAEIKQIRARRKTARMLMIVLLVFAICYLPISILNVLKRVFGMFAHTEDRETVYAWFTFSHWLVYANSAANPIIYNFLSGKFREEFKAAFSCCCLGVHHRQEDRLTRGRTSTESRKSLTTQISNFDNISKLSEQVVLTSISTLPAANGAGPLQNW
# Outline: as §1
# CYP3A4 = CYP3A4 (Homo sapiens (Human), UniProt P08684); assay: CYP3A4 inhibition assay (human liver microsomes, testosterone 6β-hydroxylation); conditions: read-out: CYP3A4 IC50, 40 μM testosterone
# Chain of CYP3A4 (P08684 whole entry): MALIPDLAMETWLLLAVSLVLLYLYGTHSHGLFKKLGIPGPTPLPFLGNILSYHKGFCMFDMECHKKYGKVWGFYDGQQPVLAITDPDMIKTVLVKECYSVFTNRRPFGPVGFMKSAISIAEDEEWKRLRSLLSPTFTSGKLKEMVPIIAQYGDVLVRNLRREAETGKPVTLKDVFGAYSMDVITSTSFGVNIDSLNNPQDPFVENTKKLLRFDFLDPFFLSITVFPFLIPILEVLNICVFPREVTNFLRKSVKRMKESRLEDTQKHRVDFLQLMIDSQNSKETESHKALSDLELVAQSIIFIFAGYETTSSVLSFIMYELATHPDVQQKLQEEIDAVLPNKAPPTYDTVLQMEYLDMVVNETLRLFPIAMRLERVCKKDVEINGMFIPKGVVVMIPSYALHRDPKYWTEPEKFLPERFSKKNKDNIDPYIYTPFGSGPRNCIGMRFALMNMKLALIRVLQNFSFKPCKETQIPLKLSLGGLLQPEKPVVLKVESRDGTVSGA
# Description: The CYP3A4 inhibition assay was performed using human liver microsomes and testosterone 6β-hydroxylation as a P450 isoform-specific marker. In a total volume of 150 μL, ^14C-testosterone at a final concentration of 40 μM in a 100 mM phosphate buffer (pH 7.4) was incubated in a 96-well plate with 0.3 mg/mL of human liver microsomes in an Eppendorf thermomixer at 37° C. and 400 rpm. […] The reaction was initiated by addition of 15 μL of the NADPH-regenerating system containing the glucose-6-phosphate dehydrogenase and terminated after 7 min with a 75 μL-aliquot of methanol. After centrifugation at 465 g and 4° C. for 20 min, a 50 μL-aliquot of the supernatant was submitted to HPLC according to the method described below. The total concentration of DMSO in the assay including controls without inhibitor was 1%.
# Nicardipine was run in parallel as a reference inhibitor of CYP3A4 activity at final concentrations of 0, 0.1, 0.5, 1.0, 5.0, 10, 25, and 50 μM. Stock solutions thereof were prepared in DMSO.
# The chromatographic separation of testosterone and 6β-hydroxytestosterone was achieved on a Phenomenex Luna C18(2) column (5 μm, 2.0×10 mm) at RT with a flow rate of 0.6 mL/min. Mobile phases consisted of 1% aqueous formic acid (phase A) and methanol (phase B) using a gradient method with 0.9 min total run time.
# The quantification of 6β-hydroxytestosterone was carried out using a quadrupole mass spectrometer equipped with an ionspray interface operating in positive ion mode. The parameters of the mass detector were set as follows: capillary voltage 5 kV, auxiliary gas 40 psi, collision gas 3 mTorr, and transfer capillary temperature 420° C.
# [2] = CHO cells expressing human orexin-1 receptor, FLIPR, 3 nM orexin-A agonist, 120 min antagonist incubation, geometric mean if determined several times, read-out: IC50 OX1
# [3] = CHO cells expressing human orexin-2 receptor, FLIPR, 3 nM orexin-A agonist, 120 min antagonist incubation, geometric mean if determined several times
concentration at 3 h [1],IC50 (CYP3A4),IC50 (human orexin-1 receptor; [2]),IC50 (human orexin-2 receptor; [3]),concentration at 1 h [1],SMILES,IC50 (human orexin-1 receptor; read-out: IC50 OX1),IC50 (human orexin-2 receptor),IC50 (human orexin-1 receptor)
11900 ng/g,30000 nM,17 nM,1240 nM,,"O=C(c1ccccc1-n1nccn1)N1CCOC[C@H]1Cc1cccc(-n2nccn2)c1 [Example 12, [(R)-3-(3-[1,2,3]Triazol-2-yl-benzyl)-morpholin-4-yl]-(2-[1,2,3]triazol-2-yl-phenyl)-methanone]",,,
160 ng/g,43000 nM,30 nM,1820 nM,,"O=C(c1ccccc1-n1nccn1)N1CCOC[C@H]1Cc1cccc(-n2cccn2)c1 [Example 16, [(R)-3-(3-Pyrazol-1-yl-benzyl)-morpholin-4-yl]-(2-[1,2,3]triazol-2-yl-phenyl)-methanone]",,,
36 ng/g,20000 nM,2 nM,1650 nM,,"Cc1ccc(-n2nccn2)c(C(=O)N2CCOC[C@H]2Cc2cccc(-n3cccn3)c2)c1F [Example 21, (2-Fluoro-3-methyl-6-[1,2,3]triazol-2-yl-phenyl)-[(R)-3-(3-pyrazol-1-yl-benzyl)-morpholin-4-yl]-methanone]",,,
423 ng/g,39000 nM,4 nM,333 nM,,"Cc1ccc(-n2nccn2)c(C(=O)N2CCOC[C@H]2Cc2cccc(-n3nccn3)c2)c1F [Example 29, (2-Fluoro-3-methyl-6-[1,2,3]triazol-2-yl-phenyl)-[(R)-3-(3-[1,2,3]triazol-2-yl-benzyl)-morpholin-4-yl]-methanone]",,,
1870 ng/g,17000 nM,4 nM,199 nM,,"O=C(c1cc(Cl)ccc1-n1nccn1)N1CCOC[C@H]1Cc1cccc(-n2nccn2)c1 [Example 30, (5-Chloro-2-[1,2,3]triazol-2-yl-phenyl)-[(R)-3-(3-[1,2,3]triazol-2-yl-benzyl)-morpholin-4-yl]-methanone]",,,
59 ng/g,20000 nM,1 nM,25 nM,,"Cc1cc(C(=O)N2CCOC[C@H]2Cc2cccc(-n3nccn3)c2)c(-n2nccn2)cc1C [Example 35, (4,5-Dimethyl-2-[1,2,3]triazol-2-yl-phenyl)-[(R)-3-(3-[1,2,3]triazol-2-yl-benzyl)-morpholin-4-yl]-methanone]",,,
881 ng/g,17000 nM,4 nM,209 nM,,"COc1cc(C(=O)N2CCOC[C@H]2Cc2cccc(-n3nccn3)c2)c(-n2nccn2)cc1C [Example 37, (5-Methoxy-4-methyl-2-[1,2,3]triazol-2-yl-phenyl)-[(R)-3-(3-[1,2,3]triazol-2-yl-benzyl)-morpholin-4-yl]-methanone]",,,
,29000 nM,,404 nM,4420 ng/g,"Cc1ccc(C(=O)N2CCOC[C@H]2Cc2cc(-n3nccn3)ccc2F)c(-n2nccn2)c1 [Example 62, [(R)-3-(2-Fluoro-5-[1,2,3]triazol-2-yl-benzyl)-morpholin-4-yl]-(4-methyl-2-[1,2,3]triazol-2-yl-phenyl)-methanone]",,,
,7500 nM,2 nM,133 nM,1380 ng/g,"O=C(c1ccc(C(F)(F)F)cc1-n1nccn1)N1CCOC[C@H]1Cc1cccc(-n2nccn2)c1 [Example 76, [(R)-3-(3-[1,2,3]Triazol-2-yl-benzyl)-morpholin-4-yl]-(2-[1,2,3]triazol-2-yl-4-trifluoromethyl-phenyl)-methanone]",,,
,16000 nM,1 nM,96 nM,1610 ng/g,"O=C(c1ccc(Cl)cc1-n1nccn1)N1CCOC[C@H]1Cc1cccc(-n2nccn2)c1 [Example 77, (4-Chloro-2-[1,2,3]triazol-2-yl-phenyl)-[(R)-3-(3-[1,2,3]triazol-2-yl-benzyl)-morpholin-4-yl]-methanone]",,,
,15000 nM,,227 nM,1880 ng/g,"O=C(c1ccc(C(F)(F)F)cc1-n1nccn1)N1CCOC[C@H]1Cc1cccc(-c2ncon2)c1 [Example 87, [(R)-3-(3-[1,2,4]Oxadiazol-3-yl-benzyl)-morpholin-4-yl]-(2-[1,2,3]triazol-2-yl-4-trifluoromethyl-phenyl)-methanone]",,,
,> 50000 nM,,571 nM,613 ng/g,"Cc1ccc(C(=O)N2CCOC[C@H]2Cc2cc(-c3ncccn3)ccc2F)c(-n2nccn2)c1 [Example 156, [(R)-3-(2-Fluoro-5-pyrimidin-2-yl-benzyl)-morpholin-4-yl]-(4-methyl-2-[1,2,3]triazol-2-yl-phenyl)-methanone]",,,
,14000 nM,21 nM,2130 nM,,"Cc1ccc(-n2nccn2)c(C(=O)N2CCOC[C@H]2Cc2cc(-n3cccn3)ccc2C)c1 [Example 188, [(R)-3-(2-Methyl-5-pyrazol-1-yl-benzyl)-morpholin-4-yl]-(5-methyl-2-[1,2,3]triazol-2-yl-phenyl)-methanone]",,,
,17000 nM,12 nM,1090 nM,,"Cc1ccc(C(=O)N2CCOC[C@H]2Cc2cc(-n3cccn3)ccc2C)c(-n2nccn2)c1 [Example 189, [(R)-3-(2-Methyl-5-pyrazol-1-yl-benzyl)-morpholin-4-yl]-(4-methyl-2-[1,2,3]triazol-2-yl-phenyl)-methanone]",,,
,26000 nM,25 nM,3770 nM,,"Cc1ccc(-n2cccn2)cc1C[C@@H]1COCCN1C(=O)c1cccc(C)c1-n1nccn1 [Example 190, [(R)-3-(2-Methyl-5-pyrazol-1-yl-benzyl)-morpholin-4-yl]-(3-methyl-2-[1,2,3]triazol-2-yl-phenyl)-methanone]",,,
,14000 nM,12 nM,1040 nM,,"Cc1ccc(-n2nccn2)cc1C[C@@H]1COCCN1C(=O)c1ccc(Cl)cc1-n1nccn1 [Example 191, (4-Chloro-2-[1,2,3]triazol-2-yl-phenyl)-[(R)-3-(2-methyl-5-[1,2,3]triazol-2-yl-benzyl)-morpholin-4-yl]-methanone]",,,
,> 50000 nM,16 nM,2610 nM,,"Cc1ccc(C[C@@H]2COCCN2C(=O)c2ccccc2-n2nccn2)cc1-c1ncccn1 [Example 192, [(R)-3-(4-Methyl-3-pyrimidin-2-yl-benzyl)-morpholin-4-yl]-(2-[1,2,3]triazol-2-yl-phenyl)-methanone]",,,
,600 nM,1 nM,238 nM,,"Cc1ccc(C[C@@H]2COCCN2C(=O)c2ccccc2-n2nccn2)cc1-c1nccs1 [Example 193, [(R)-3-(4-Methyl-3-thiazol-2-yl-benzyl)-morpholin-4-yl]-(2-[1,2,3]triazol-2-yl-phenyl)-methanone]",,,

SMILES,concentration at 3 h [1],IC50 (CYP3A4),IC50 (human orexin-1 receptor; [2]),IC50 (human orexin-2 receptor; [3]),concentration at 1 h [1],IC50 (human orexin-1 receptor; read-out: IC50 OX1),IC50 (human orexin-2 receptor),IC50 (human orexin-1 receptor)
"Cc1ccc(-n2nccn2)c(C(=O)N2CCOC[C@H]2Cc2cccc(-n3nccn3)c2)c1 [Example 11, (5-Methyl-2-[1,2,3]triazol-2-yl-phenyl)-[(R)-3-(3-[1,2,3]triazol-2-yl-benzyl)-morpholin-4-yl]-methanone]",46 ng/g,,,,,2 nM,196 nM,
"Cc1ccc(C(=O)N2CCOC[C@H]2Cc2cccc(-n3nccn3)c2)c(-n2nccn2)c1 [Example 27, (4-Methyl-2-[1,2,3]triazol-2-yl-phenyl)-[(R)-3-(3-[1,2,3]triazol-2-yl-benzyl)-morpholin-4-yl]-methanone]",5500 ng/g,31000 nM,,,,2 nM,274 nM,
"Cc1cccc(C(=O)N2CCOC[C@H]2Cc2cccc(-n3nccn3)c2)c1-n1nccn1 [Example 64, (3-Methyl-2-[1,2,3]triazol-2-yl-phenyl)-[(R)-3-(3-[1,2,3]triazol-2-yl-benzyl)-morpholin-4-yl]-methanone]",,33000 nM,,784 nM,2370 ng/g,,,6 nM
"Cc1ccc(C(=O)N2CCOC[C@H]2Cc2cccc(-n3nccn3)c2)c(-n2nccn2)c1C [Example 92, (3,4-Dimethyl-2-[1,2,3]triazol-2-yl-phenyl)-[(R)-3-(3-[1,2,3]triazol-2-yl-benzyl)-morpholin-4-yl]-methanone]",,44000 nM,,,1970 ng/g,3 nM,2630 nM,
Cc1ccc(-n2nccn2)c(C(=O)N2CCC[C@H]2Cc2cccc(-n3nccn3)c2)c1 [Ref. 2],,3300 nM,0.5 nM,8 nM,,,,
O=C(c1ccccc1-n1nccn1)N1CCCC[C@H]1Cc1cccc(-n2nccn2)c1 [Ref. 3],,6100 nM,1 nM,12 nM,,,,
Cc1ccc(-n2nccn2)c(C(=O)N2CCCC[C@H]2Cc2cccc(-n3nccn3)c2)c1 [Ref. 4],,7700 nM,0.3 nM,2 nM,,,,
